The source of these data is patent publication US20230077362A1 (CORTEVA AGRISCIENCE LLC, priority 2019, published 2023).

Broadly, the mortality is the share of the test organisms that died.

Read-outs that look alike come from different tables or passages of the source.

The test system of data set [1] is Beet Armyworm (Spodoptera exigua) ("BAW"), second instar larvae. Put plainly: Bioassay on beet armyworm (BAW), 128-well diet tray assay. Conditions: for pest or weed control at 50 µg/cm2: Spodoptera exigua; for BAW rating: C = not tested, D = no activity noticed. It is filed as in vivo. The gist of the method: (§1)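 After sealing with a clear self-adhesive lid, the trays are incubated at 25° C. with 14 h light and 10 h dark for 5 to 7 days; mortality in each well is recorded as a percentage and averaged across the eight wells.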

For data set [2], the system named is Cabbage Looper (Trichoplusia ni) ("CL"), second instar larvae. Briefly: Bioassay on cabbage looper (CL), 128-well diet tray assay. It is filed as in vivo. Conditions: for CL rating: C = not tested, D = no activity noticed. Put shortly:
as §1

[3] abbreviates: Trichoplusia ni, read-out: CL rating.
The mark [4] stands for this setting: read-out: BAW (Biological Results, rating).
[5] abbreviates: Trichoplusia ni, read-out: CL (Biological Results, rating).

For the molecule `Cc1ccc(COCC(F)(F)F)c(N2C(=O)CS/C2=N\C(=O)Nc2ccc(-c3ncn(-c4ccc(CC#N)cc4)n3)cc2F)c1` [Compound J425, (Z)-1-(4-(1-(4-(Cyanomethyl)phenyl)-1H-1,2,4-triazol-3-yl)-2-fluorophenyl)-3-(3-(5-methyl-2-((2,2,2-trifluoroethoxy)methyl)phenyl)-4-oxothiazolidin-2-ylidene)urea], the pest or weed control at 50 µg/cm2 in data set [1] (read-out: BAW rating) and in data set [2] (setting [3]) was 50 to 100% throughout.
As for `Cc1ccc(C(C)C)c(N2C(=O)CS/C2=N\C(=O)Nc2ccc(-c3cn(-c4ccc(OC(F)(F)F)cc4)cn3)cc2C)c1` [Compound J477, (Z)-1-(3-(2-Isopropyl-5-methylphenyl)-4-oxothiazolidin-2-ylidene)-3-(2-methyl-4-(1-(4-(trifluoromethoxy)phenyl)-1H-imidazol-4-yl)phenyl)urea], the pest or weed control at 50 µg/cm2 in data set [1] (read-out: BAW rating) and in data set [2] (setting [3]) was 50 to 100% each time.
Take `COc1ccc(C(C)C)c(N2C(=O)CS/C2=N\C(=O)Nc2ccc(-c3ncn(-c4ccc(OC(F)(F)F)cn4)n3)cc2C(F)(F)F)c1` [Compound J277, (Z)-1-(3-(2-Isopropyl-5-methoxyphenyl)-4-oxothiazolidin-2-ylidene)-3-(4-(1-(5-(trifluoromethoxy)pyridin-2-yl)-1H-1,2,4-triazol-3-yl)-2-(trifluoromethyl)phenyl)urea]: the pest or weed control at 50 µg/cm2 in data set [1] (setting [4]) and in data set [2] (setting [5]) was 50 to 100% in each case.
For `Cc1cc(-c2ncn(-c3ccc(OCC#N)cc3)n2)ccc1NC(=O)/N=C1\SCC(=O)N1c1cc(N(C)C)ccc1C(C)C` [Compound J357, (Z)-1-(4-(1-(4-(Cyanomethoxy)phenyl)-1H-1,2,4-triazol-3-yl)-2-methylphenyl)-3-(3-(5-(dimethylamino)-2-isopropylphenyl)-4-oxothiazolidin-2-ylidene)urea], the pest or weed control at 50 µg/cm2 in data set [1] (read-out: BAW rating) and in data set [2] (setting [3]) was 50 to 100% in each case.
With `COC(C)c1ccc(C)cc1N1C(=O)CS/C1=N\C(=O)Nc1ccc(-c2ncn(-c3ccc(S(=O)(=O)C(F)(F)F)cc3)n2)cc1F` (stereo not shown) [Compound J361, (Z)-1-(2-Fluoro-4-(1-(4-((trifluoromethyl)sulfonyl)phenyl)-1H-1,2,4-triazol-3-yl)phenyl)-3-(3-(2-(1-methoxyethyl)-5-methylphenyl)-4-oxothiazolidin-2-ylidene)urea], the pest or weed control at 50 µg/cm2 in data set [1] (read-out: BAW rating) and in data set [2] (setting [3]) was 50 to 100% throughout.
`Cc1ccc(OCCC(F)(F)F)c(N2C(=O)CS/C2=N\C(=O)Nc2ccc(-c3ncn(-c4ccc(OCC#N)cc4)n3)cc2C)c1` [Compound J360, (Z)-1-(4-(1-(4-(Cyanomethoxy)phenyl)-1H-1,2,4-triazol-3-yl)-2-methylphenyl)-3-(3-(5-methyl-2-(3,3,3-trifluoropropoxy)phenyl)-4-oxothiazolidin-2-ylidene)urea]: the pest or weed control at 50 µg/cm2 in data set [1] (read-out: BAW rating) and in data set [2] (setting [3]) was 50 to 100% in each case.
As for `CCCc1ccc(C)cc1N1C(=O)CS/C1=N\C(=O)Nc1ccc(-c2ncn(-c3ccc(OC(F)(F)F)cc3)n2)cc1C#N` [Compound J248, (Z)-1-(2-Cyano-4-(1-(4-(trifluoromethoxy)phenyl)-1H-1,2,4-triazol-3-yl)phenyl)-3-(3-(5-methyl-2-propylphenyl)-4-oxothiazolidin-2-ylidene)urea], the pest or weed control at 50 µg/cm2 in data set [1] (setting [4]) and in data set [2] (setting [5]) was 50 to 100% throughout.
As for `COc1cc(-c2ncn(-c3ccc(OC(F)(F)F)cc3)n2)ccc1NC(=O)/N=C1\SCC(=O)N1c1cc(N(C)C)ccc1OCCC(F)(F)F` [Compound J109, (Z)-1-(3-(5-(Dimethylamino)-2-(3,3,3-trifluoropropoxy)phenyl)-4-oxothiazolidin-2-ylidene)-3-(2-methoxy-4-(1-(4-(trifluoromethoxy)phenyl)-1H-1,2,4-triazol-3-yl)phenyl)urea], the pest or weed control at 50 µg/cm2 in data set [1] (setting [4]) and in data set [2] (setting [5]) was 50 to 100% in each case.
For `COC(C)c1ccc(C)cc1N1C(=O)CS/C1=N\C(=O)Nc1ccc(-c2ncn(-c3ccc(OC(F)(F)F)cc3)n2)cc1C(C)=O` (stereo not shown) [Compound J397, (Z)-1-(2-Acetyl-4-(1-(4-(trifluoromethoxy)phenyl)-1H-1,2,4-triazol-3-yl)phenyl)-3-(3-(2-(1-methoxyethyl)-5-methylphenyl)-4-oxothiazolidin-2-ylidene)urea], the pest or weed control at 50 µg/cm2 in data set [1] (read-out: BAW rating) and in data set [2] (setting [3]) was 50 to 100% throughout.
With `Cc1ccc(C(C)C)c(N2C(=O)CS/C2=N\C(=O)Nc2ccc(-c3ncn(-c4ccc(C(F)(F)F)cc4)n3)cc2F)c1` [Compound J61, (Z)-1-(2-Fluoro-4-(1-(4-(trifluoromethyl)phenyl)-1H-1,2,4-triazol-3-yl)phenyl)-3-(3-(2-isopropyl-5-methylphenyl)-4-oxothiazolidin-2-ylidene)urea], the pest or weed control at 50 µg/cm2 in data set [1] (setting [4]) and in data set [2] (setting [5]) was 50 to 100% each time.
`CCOCc1ccc(C)cc1N1C(=O)CS/C1=N\C(=O)Nc1ccc(-c2ncn(-c3ccc(S(F)(F)(F)(F)F)cc3)n2)cc1C` [Compound J548]: in data set [1] (Table ABC, species BAW), the BAW rating entry is reported as “A (50-100)”. Also, the CL rating result in data set [2] (Table ABC, species CL) is recorded as “A (50-100)”.
Consider `O=C(/N=C1\SCC(=O)N1c1ccccc1COCC(F)(F)F)Nc1ccc(-c2ncn(-c3ccc(C(F)(F)F)cc3)n2)cc1F` [Compound J661], for which the BAW rating entry in data set [1] (Table ABC, species BAW) is reported as “A (50-100)”. For the same molecule, the CL rating result in data set [2] (Table ABC, species CL) is given as “A (50-100)”.
`Cc1ccc(OCCC(F)(F)F)c(N2C(=O)CS/C2=N\C(=O)Nc2ccc(-c3ncn(-c4ccc(OC(F)(F)F)cc4)n3)cc2C(C)C)c1` [Compound J93, (Z)-1-(2-Isopropyl-4-(1-(4-(trifluoromethoxy)phenyl)-1H-1,2,4-triazol-3-yl)phenyl)-3-(3-(5-methyl-2-(3,3,3-trifluoropropoxy)phenyl)-4-oxothiazolidin-2-ylidene)urea]: the pest or weed control at 50 µg/cm2 in data set [1] (setting [4]) and in data set [2] (setting [5]) was 50 to 100% each time.
`COc1ccc(COCC(F)(F)F)c(N2C(=O)CS/C2=N\C(=O)Nc2ccc(-n3cnc(-c4ccc(OC(F)(F)F)cc4)n3)cc2F)c1` [Compound J691, (Z)-1-(2-Fluoro-4-(3-(4-(trifluoromethoxy)phenyl)-1H-1,2,4-triazol-1-yl)phenyl)-3-(3-(5-methoxy-2-((2,2,2-trifluoroethoxy)methyl)phenyl)-4-oxothiazolidin-2-ylidene)urea]: the pest or weed control at 50 µg/cm2 in data set [1] (read-out: BAW rating) and in data set [2] (setting [3]) was 50 to 100% in each case.
In the case of `CC(C)c1ccc(N(C)C)cc1N1C(=O)CS/C1=N\C(=O)Nc1ccc(-c2ncn(-c3ccc(C(F)(F)F)cn3)n2)cc1F` [Compound J336, (Z)-1-(3-(5-(Dimethylamino)-2-isopropylphenyl)-4-oxothiazolidin-2-ylidene)-3-(2-fluoro-4-(1-(5-(trifluoromethyl)pyridin-2-yl)-1H-1,2,4-triazol-3-yl)phenyl)urea], the pest or weed control at 50 µg/cm2 in data set [1] (setting [4]) and in data set [2] (setting [5]) was 50 to 100% each time.
As for `CCCc1ccc(C)cc1N1C(=O)CS/C1=N\C(=O)Nc1ccc(-c2ncn(-c3ccc(OC(F)(F)C(F)(F)F)cc3)n2)c(C)c1` [Compound J12, (Z)-1-(3-(5-Methyl-2-propylphenyl)-4-oxothiazolidin-2-ylidene)-3-(3-methyl-4-(1-(4-(perfluoroethoxy)phenyl)-1H-1,2,4-triazol-3-yl)phenyl)urea], the pest or weed control at 50 µg/cm2 in data set [1] (setting [4]) and in data set [2] (setting [5]) was 50 to 100% throughout.
Turning to `Cc1ccc(COCC(F)(F)F)c(N2C(=O)CS/C2=N\C(=O)Nc2ccc(-c3ncn(-c4ccc(C(F)(F)F)cn4)n3)cc2C(F)(F)F)c1` [Compound J304, (Z)-1-(3-(5-Methyl-2-((2,2,2-trifluoroethoxy)methyl)phenyl)-4-oxothiazolidin-2-ylidene)-3-(2-(trifluoromethyl)-4-(1-(5-(trifluoromethyl)pyridin-2-yl)-1H-1,2,4-triazol-3-yl)phenyl)urea], the pest or weed control at 50 µg/cm2 in data set [1] (setting [4]) and in data set [2] (setting [5]) was 50 to 100% in each case.
On to `COCc1ccc(C)cc1N1C(=O)CS/C1=N\C(=O)Nc1ccc(-n2cnc(-c3ccc(OC(F)(F)F)cc3)c2)cc1Cl` [Compound J788, (Z)-1-(2-Chloro-4-(4-(4-(trifluoromethoxy)phenyl)-1H-imidazol-1-yl)phenyl)-3-(3-(2-(methoxymethyl)-5-methylphenyl)-4-oxothiazolidin-2-ylidene)urea], for which the “BAW rating (% control or mortality class)” value in data set [1] (Table ABC, species BAW, 128-well diet tray assay, second instar larvae) is on record as “A (50-100)”. Also, the mortality at 50 µg/cm2 in data set [2] (Trichoplusia ni, Table ABC, species CL, 128-well diet tray assay, second instar larvae, read-out: CL rating (% control or mortality class)) lay in the range of 50 to 100%.
With `Cc1ccc(OCCC(F)(F)F)c(N2C(=O)CS/C2=N\C(=O)Nc2ccc(-n3cnc(-c4ccc(OC(F)(F)F)cc4)n3)cc2C)c1` [Compound J441, (Z)-1-(3-(5-Methyl-2-(3,3,3-trifluoropropoxy)phenyl)-4-oxothiazolidin-2-ylidene)-3-(2-methyl-4-(3-(4-(trifluoromethoxy)phenyl)-1H-1,2,4-triazol-1-yl)phenyl)urea], the pest or weed control at 50 µg/cm2 in data set [1] (read-out: BAW rating) and in data set [2] (setting [3]) was 50 to 100% throughout.
Consider `CCCc1ccc(N(C)C)cc1N1C(=O)CS/C1=N\C(=O)Nc1ccc(-c2ncn(-c3ccc(OC(F)(F)F)cn3)n2)cc1C(F)(F)F` [Compound J278, (Z)-1-(3-(5-(Dimethylamino)-2-propylphenyl)-4-oxothiazolidin-2-ylidene)-3-(4-(1-(5-(trifluoromethoxy)pyridin-2-yl)-1H-1,2,4-triazol-3-yl)-2-(trifluoromethyl)phenyl)urea], for which the pest or weed control at 50 µg/cm2 in data set [1] (setting [4]) and in data set [2] (setting [5]) was 50 to 100% throughout.
